Molecules are shown by their SMILES.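 Test compounds were applied to cells in 96-well plates for 48 hours at 5 doses. GI50 marks 50% less growth.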 Calls of active or inactive are those of the source. Rule as the data show it: active = GI50 up to about 1.1 µM and inactive = higher. Some results are limits rather than exact numbers.

Holding throughout (experiment): growth of human tumour cells (NCI), 48 h
In assay [1] the test system is 786-0.
Assay [2] has as its system HCT-15.
Assay [3] concerns HOP-92.
The test system of assay [4] is Hs-578T.
Assay [5] deals with K562.
The test system of assay [6] is KM12.
Assay [7] deals with LOX IMVI.
Assay [8] relates to M14.
Assay [9] relates to MDA-MB-231.
Assay [10] has as its system MDA-MB-435.
In assay [11] the test system is SK-MEL-2.
Assay [12] relates to SK-OV-3.
For assay [13], the system named is SNB-19.
For assay [14], the system named is SNB-75.
For assay [15], the system named is SR.
Assay [16] concerns SW-620.
The subject of assay [17] is TK-10.
The subject of assay [18] is OVCAR-4.
In assay [19] the test system is SF-295.
In assay [20] the test system is T47D.

`N#Cc1nc(Cc2cccs2)oc1N`: the GI50 in assay [1] is > 100 µM (inactive); in assay [2], more than 100 µM; in assay [3] it was > 100 µM (inactive); in assay [4], > 100 µM (inactive); in assay [5] it was > 100 µM (inactive); in [6] it was > 100 µM (inactive). In addition, the GI50 in assay [7], in assay [8], in [9], in assay [10], in assay [11] and in assay [12] was > 100 µM (inactive) throughout. Besides, the GI50 in [13], in [14], in assay [15], in assay [16] and in [17] was > 100 µM (inactive) throughout.
With `COc1ccccc1NC(=O)/C(Cc1nc2ccc([N+](=O)[O-])cc2nc1O)=N\NC(=O)C[N+](C)(C)C`, the GI50 was 68.7 µM (inactive) in assay [1]; 40.7 µM in [2]; > 100 µM (inactive) in assay [3]; > 100 µM (inactive) in assay [4]; 31.8 µM (inactive) in [6]; > 100 µM (inactive) in [7]. Besides, the GI50 was 57.1 µM (inactive) in assay [8]; > 100 µM (inactive) in [9]; 20 µM (inactive) in assay [10]; > 100 µM (inactive) in assay [18]; 55.7 µM (inactive) in assay [19]; > 100 µM (inactive) in assay [11]. The GI50 was > 100 µM (inactive) in [12]; > 100 µM (inactive) in [13]; > 100 µM (inactive) in assay [14]; 1.44 µM (inactive) in assay [15]; 48 µM (inactive) in assay [16]; > 100 µM (inactive) in assay [17].
Turning to `C=C(C)C[C@H](Sc1nc2ccccc2s1)[C@H](C)O`, the GI50 was 40.8 µM (inactive) in [1]; 35.8 µM in [2]; 24.6 µM (inactive) in assay [3]; 41.3 µM (inactive) in assay [4]; 33.7 µM (inactive) in assay [5]; 41.2 µM (inactive) in [6]. The GI50 in [7] was 39.4 µM (inactive); in assay [8] it was 77.3 µM (inactive); in assay [9], 73.6 µM (inactive); in assay [10], 37.2 µM (inactive); in [18], 70.1 µM (inactive); in assay [19] it was 39.5 µM (inactive). The GI50 was 23.1 µM (inactive) in assay [11]; > 100 µM (inactive) in assay [13]; 30.3 µM (inactive) in assay [15]; 45.4 µM (inactive) in assay [16]; 71.3 µM (inactive) in [17].
Turning to `Cc1nc(C(N)=S)sc1C(=O)CC(=O)C(=O)Nc1ccc(Br)cc1`, the GI50 was > 100 µM (inactive) in [1]; more than 100 µM in assay [2]; > 100 µM (inactive) in assay [3]; > 100 µM (inactive) in [4]; > 100 µM (inactive) in [5]; > 100 µM (inactive) in [6]. The GI50 in assay [7], in [8], in assay [9], in [10], in [18] and in assay [19] was > 100 µM (inactive) throughout. Further, the GI50 in assay [11], in assay [12], in assay [14], in assay [16], in assay [20] and in assay [17] was > 100 µM (inactive) throughout.
`O=C1/C(=C\c2ccc(Cl)cc2Cl)Sc2scc(-c3ccc(O)c(O)c3)[n+]21`: the GI50 in assay [1] is 15.7 µM (inactive); in assay [2] it was 14.8 µM; in assay [3], 7.76 µM (inactive); in [4], 27.2 µM (inactive); in assay [6], 15.1 µM (inactive); in [7], 16.4 µM (inactive). For the same compound, the GI50 in assay [8] was 16.3 µM (inactive); in [9] it was 16.5 µM (inactive); in assay [10], 12.2 µM (inactive); in assay [18], 13.4 µM (inactive); in assay [19], 17.4 µM (inactive); in [11], 11.5 µM (inactive). Moreover, the GI50 in [12] was 15.8 µM (inactive); in assay [13], 17.6 µM (inactive); in [14], 21.8 µM (inactive); in assay [16] it was 14 µM (inactive); in assay [17] it was 12.7 µM (inactive).
Regarding `N/C(=N\c1ccc(Cl)cc1)NS(=O)(=O)c1c(C(F)(F)F)cccc1C(F)(F)F`, the GI50 is 24.8 µM (inactive) in assay [1]; 17 µM in [2]; 16.7 µM (inactive) in assay [3]; 17.9 µM (inactive) in assay [4]; > 100 µM (inactive) in [5]; 4.89 µM (inactive) in [6]. Further, the GI50 in [7] was 16.3 µM (inactive); in [8], 26.3 µM (inactive); in [9], 22.2 µM (inactive); in [18] it was 17.5 µM (inactive); in assay [19], 7.85 µM (inactive); in assay [11] it was 12.7 µM (inactive). The GI50 in assay [12] is 35.2 µM (inactive); in assay [13], 18.9 µM (inactive); in assay [14], 41.8 µM (inactive); in assay [15] it was > 100 µM (inactive); in assay [16], 33.3 µM (inactive); in [20], 12.5 µM (inactive). For the same compound, in [17], the GI50 was 24 µM (inactive).
Take `N/N=C1/C2CN3CCN(C2)CC1(c1ccc([N+](=O)[O-])cc1)C3`: the GI50 in assay [1] was > 100 µM (inactive); in [4] it was 14.7 µM (inactive); in [5], > 100 µM (inactive); in [6] it was > 100 µM (inactive); in assay [7], > 100 µM (inactive); in assay [9] it was > 100 µM (inactive). The GI50 in [10], in assay [18], in [19], in assay [11], in [13] and in assay [14] was > 100 µM (inactive) each time. Further, the GI50 in assay [15] was 27.7 µM (inactive); in [16], > 100 µM (inactive); in assay [17], > 100 µM (inactive).
`CC(C)(Br)C(Br)CCC(C)(Br)C(Br)CO` (configuration not stated): the GI50 in assay [1] is > 10 µM (inactive); in assay [2], more than 10 µM; in assay [3] it was > 10 µM (inactive); in assay [4] it was > 10 µM (inactive); in assay [5], > 10 µM (inactive); in assay [8], > 10 µM (inactive). Besides, the GI50 in assay [9], in [10], in assay [18], in assay [19], in assay [12] and in [13] was > 10 µM (inactive) throughout. Further, the GI50 in assay [14], in assay [16] and in assay [20] was > 10 µM (inactive) throughout.
Take `Nc1n2nc(-c3ccccc3)sc2n[n+]1CC(=O)c1ccccc1`: the GI50 is 19.9 µM (inactive) in assay [1]; 12.9 µM in assay [2]; 47.6 µM (inactive) in assay [4]; 3.09 µM (inactive) in [5]; 6.3 µM (inactive) in assay [6]; 11.1 µM (inactive) in assay [7]. For the same compound, the GI50 in assay [8] was 10.1 µM (inactive); in assay [10], 2.72 µM (inactive); in assay [18], 47.2 µM (inactive); in [19], 14 µM (inactive); in assay [11], 38.5 µM (inactive); in assay [12], 16.7 µM (inactive). Besides, the GI50 was 21.7 µM (inactive) in [13]; 26.3 µM (inactive) in [14]; 4.89 µM (inactive) in [16]; 30.4 µM (inactive) in assay [20]; 27.4 µM (inactive) in assay [17].
For `CC(C)(C)c1c(C(C)(C)C)c(=O)c1=O`, the GI50 in assay [1] was > 100 µM (inactive); in assay [2] it was more than 100 µM; in assay [3], > 100 µM (inactive); in assay [4] it was > 100 µM (inactive); in [5], > 100 µM (inactive); in assay [6], > 100 µM (inactive). Also, the GI50 in [7], in assay [8], in assay [9], in [10], in assay [18] and in assay [19] was > 100 µM (inactive) each time. The GI50 in assay [11], in assay [12], in assay [13], in assay [14], in [16] and in assay [17] was > 100 µM (inactive) in each case.
Regarding `CC(=O)/N=S(/NC(=O)c1ccc(C)cc1)C(Cl)(Cl)Cl` (configuration not stated), the GI50 in assay [1] is 18 µM (inactive); in assay [2], 42.8 µM; in [3] it was > 100 µM (inactive); in assay [4], 59.3 µM (inactive); in assay [5], 23.9 µM (inactive); in assay [6] it was > 100 µM (inactive). Also, the GI50 is 29.7 µM (inactive) in assay [7]; 15.7 µM (inactive) in assay [8]; 26.2 µM (inactive) in [9]; 19.1 µM (inactive) in assay [10]; 31.2 µM (inactive) in assay [18]; > 100 µM (inactive) in [19]. For the same compound, the GI50 in [12] was 70 µM (inactive); in [13], 94.8 µM (inactive); in [14] it was 45.3 µM (inactive); in [16] it was 15.8 µM (inactive); in [20], 34.3 µM (inactive); in [17], > 100 µM (inactive).
Take `CC(C)(O)C1COC2=C1C(=O)c1ccccc1C2=O` (configuration not stated): the GI50 in assay [1] was 41.3 µM (inactive); in assay [2], 27.5 µM; in assay [3] it was 27.5 µM (inactive); in assay [4], 27 µM (inactive); in [5], 35.2 µM (inactive); in assay [6], 88.3 µM (inactive). In addition, the GI50 in assay [7] is 19.2 µM (inactive); in [8], 35.6 µM (inactive); in [9], 38.7 µM (inactive); in assay [10] it was 23.3 µM (inactive); in [18], 71 µM (inactive); in assay [19], 42.5 µM (inactive). The GI50 is 29.7 µM (inactive) in assay [11]; > 100 µM (inactive) in [12]; > 100 µM (inactive) in [13]; 19.8 µM (inactive) in assay [14]; 23 µM (inactive) in assay [16]; 33.4 µM (inactive) in assay [20].

Source of the values: ChEMBL document CHEMBL1201862, “PubChem BioAssay data set” (2004).
